In ChEMBL document CHEMBL3272295, “Drugs derived from cannabinoids. 5. delta6a,10a-Tetrahydrocannabinol and heterocyclic analogs containing aromatic side chains” (J Med Chem, 1976):

Columns and labels:
Rattus norvegicus [1] = assay: Antidiarrheal activity in Charles River rat assessed as inhibition of castor oil-induced diarrhea by measuring protected animals at 0.2 mg/kg, po administered for 5 days followed by 0.2 mg/kg, po on test day administered 1 hr prior to castor oil challenge measured after 1 hr relative to vehicle-treated control; type: functional
Rattus norvegicus [2] = assay: Antidiarrheal activity in Charles River rat assessed as inhibition of castor oil-induced diarrhea by measuring protected animals at 0.5 mg/kg, po administered for 2 days followed by 1 mg/kg, po on test day administered 1 hr prior to castor oil challenge measured after 1 hr relative to vehicle-treated control; type: functional
Rattus norvegicus [3] = assay: Antidiarrheal activity in Charles River rat assessed as inhibition of castor oil-induced diarrhea by measuring protected animals at 0.05 mg/kg, po administered 1 hr prior to castor oil challenge measured after 1 hr relative to vehicle-treated control; type: functional
Canis familiaris = assay: Antianxiety activity in po dosed dog assessed as ataxia administered as single dose measured up to 24 hrs; type: functional; settings: Canis lupus familiaris, read-out: MED
Rattus norvegicus [4] = assay: Antipsychotic activity in rat assessed as reduction of methamphetamine-induced hyperactivity at 2 mg/kg, po administered prior to methamphetamine challenge relative to vehicle-treated control; type: functional; set-up: scale not given: the % may be the effect or the level left
Rattus norvegicus [5] = assay: Antisecretory activity in Sprague-Dawley rat assessed as decrease in pepsin output at 50 mg/kg, po administered 30 mins prior to pylorus ligation measured after 4 hrs relative to control; type: functional; set-up: scale not given: the % may be the effect or the level left
[6] = Acute toxicity in po dosed mouse; type: organism-based; settings: in vivo
Rattus norvegicus [7] = assay: Antihypertensive activity in spontaneously hypertensive rat model assessed as reduction in blood pressure at 1 mg/kg, po after 24 hrs; type: functional; set-up: scale not given: the % may be the effect or the level left
Rattus norvegicus [8] = assay: Antidiarrheal activity in Charles River rat assessed as inhibition of castor oil-induced diarrhea by measuring protected animals at 0.5 mg/kg, po administered for 2 days followed by 0.5 mg/kg, po on test day administered 1 hr prior to castor oil challenge measured after 1 hr relative to vehicle-treated control; type: functional
Rattus norvegicus [9] = assay: Antidiarrheal activity in Charles River rat assessed as inhibition of castor oil-induced diarrhea by measuring protected animals at 0.1 mg/kg, po administered 1 hr prior to castor oil challenge measured after 1 hr relative to vehicle-treated control; type: functional
Rattus norvegicus [10] = assay: Antihypertensive activity in spontaneously hypertensive rat model assessed as reduction in blood pressure at 0.3 mg/kg, po after 3 hrs; type: functional; set-up: scale not given: the % may be the effect or the level left
Rattus norvegicus [11] = assay: Antidiarrheal activity in Charles River rat assessed as inhibition of castor oil-induced diarrhea by measuring protected animals at 0.5 mg/kg, po administered for 5 days followed by 0.5 mg/kg, po on test day administered 1 hr prior to castor oil challenge measured after 1 hr relative to vehicle-treated control; type: functional
Rattus norvegicus [12] = assay: Antidiarrheal activity in Charles River rat assessed as inhibition of castor oil-induced diarrhea by measuring protected animals at 0.2 mg/kg, po administered 1 hr prior to castor oil challenge measured after 1 hr relative to vehicle-treated control; type: functional
Rattus norvegicus [13] = assay: Antihypertensive activity in spontaneously hypertensive rat model assessed as reduction in blood pressure at 1 mg/kg, po after 3 hrs; type: functional; set-up: scale not given: the % may be the effect or the level left
Rattus norvegicus [14] = assay: Antipsychotic activity in rat assessed as reduction of methamphetamine-induced hyperactivity at 0.5 mg/kg, po administered prior to methamphetamine challenge relative to vehicle-treated control; type: functional; set-up: scale not given: the % may be the effect or the level left
Mus musculus [15] = assay: Antianxiety activity in albino BALB/cJ mouse assessed as reduction in footshock-induced fighting behavior at 5 mg/kg, po after 30 to 90 mins; type: functional; set-up: scale not given: the % may be the effect or the level left
Rattus norvegicus [16] = assay: Antisecretory activity in Sprague-Dawley rat assessed as decrease in acid output at 50 mg/kg, po administered 30 mins prior to pylorus ligation measured after 4 hrs relative to control; type: functional; set-up: scale not given: the % may be the effect or the level left
Rattus norvegicus [17] = assay: Antianxiety activity in Long-Evans rat assessed as reduction in motor activity at 5 mg/kg, po after 2 hrs relative to vehicle-treated control; type: functional; set-up: scale not given: the % may be the effect or the level left
Rattus norvegicus [18] = assay: Antisecretory activity in Sprague-Dawley rat assessed as decrease in pepsin concentration at 50 mg/kg, po administered 30 mins prior to pylorus ligation measured after 4 hrs relative to control; type: functional; set-up: scale not given: the % may be the effect or the level left
Rattus norvegicus [19] = assay: Antisecretory activity in Sprague-Dawley rat assessed as decrease in acidity at 50 mg/kg, po administered 30 mins prior to pylorus ligation measured after 4 hrs relative to control; type: functional; set-up: scale not given: the % may be the effect or the level left
Rattus norvegicus [20] = assay: Antisecretory activity in Sprague-Dawley rat assessed as decrease in volume at 50 mg/kg, po administered 30 mins prior to pylorus ligation measured after 4 hrs relative to control; type: functional; set-up: scale not given: the % may be the effect or the level left
Mus musculus [21] = assay: Analgesic activity in po dosed mouse assessed as inhibition of acetic acid-induced writhing administered 30 mins prior to acetic acid challenge measured after 5 mins for 20 mins; type: functional
Rattus norvegicus [22] = assay: Antipsychotic activity in rat assessed as reduction of methamphetamine-induced hyperactivity at 5 mg/kg, po administered prior to methamphetamine challenge relative to vehicle-treated control; type: functional; set-up: scale not given: the % may be the effect or the level left
Rattus norvegicus [23] = assay: Antihypertensive activity in spontaneously hypertensive rat model assessed as reduction in blood pressure at 0.3 mg/kg, po after 24 hrs; type: functional; set-up: scale not given: the % may be the effect or the level left
Rattus norvegicus [24] = species: Rattus norvegicus; assay: animal or person; settings: Charles River, po, read-out: INH
Description: Antidiarrheal activity in Charles River rat assessed as inhibition of castor oil-induced diarrhea by measuring protected animals at 2 mg/kg, po administered 1 hr prior to castor oil challenge measured after 1 hr relative to vehicle-treated control

Rattus norvegicus [25] = species: Rattus norvegicus; assay: animal or person; type: functional; settings: Charles River, route oral
Description: Antidiarrheal activity in Charles River rat assessed as inhibition of castor oil-induced diarrhea by measuring protected animals at 0.5 mg/kg, po administered 1 hr prior to castor oil challenge measured after 1 hr relative to vehicle-treated control

Rattus norvegicus [26] = species: Rattus norvegicus; assay: animal or person; type: functional; settings: Charles River, route oral; remark: listed apart in the source
Description: Antidiarrheal activity in Charles River rat assessed as inhibition of castor oil-induced diarrhea by measuring protected animals at 1 mg/kg, po administered 1 hr prior to castor oil challenge measured after 1 hr relative to vehicle-treated control

Rattus norvegicus [27] = assay: Antianxiety activity in Long-Evans rat assessed as reduction in motor activity at 1 mg/kg, po after 2 hrs relative to vehicle-treated control; type: functional; set-up: scale not given: the % may be the effect or the level left
Felis catus [28] = assay: Hypnotic activity in cat assessed as increase in total sleep time at 0.5 mg/kg administered orally through diet measured for 12 hrs by EEG analysis; type: functional; settings: route oral
Felis catus [29] = assay: Hypnotic activity in cat assessed as increase in non-REM sleep time at 0.5 mg/kg administered orally through diet measured for 12 hrs by EEG analysis; type: functional; settings: route oral
Rattus norvegicus [30] = assay: Antidiarrheal activity in Charles River rat assessed as inhibition of castor oil-induced diarrhea by measuring protected animals at 0.4 mg/kg, po administered 1 hr prior to castor oil challenge measured after 1 hr relative to vehicle-treated control; type: functional
Rhesus monkey = assay: Antianxiety activity in po dosed rhesus monkey assessed as antiagressive behavior measured every hour post dosing; type: functional; settings: Macaca mulatta, read-out: MED
Rattus norvegicus [31] = assay: Antihypertensive activity in spontaneously hypertensive rat model assessed as reduction in blood pressure at 5 mg/kg, po after 3 hrs; type: functional; set-up: scale not given: the % may be the effect or the level left
Rattus norvegicus [32] = assay: Antidiarrheal activity in Charles River rat assessed as inhibition of castor oil-induced diarrhea by measuring protected animals at 0.8 mg/kg, po administered 1 hr prior to castor oil challenge measured after 1 hr relative to vehicle-treated control; type: functional
Rattus norvegicus [33] = assay: Antianxiety activity in Long-Evans rat assessed as reduction in motor activity at 10 mg/kg, po after 2 hrs relative to vehicle-treated control; type: functional; set-up: scale not given: the % may be the effect or the level left
Rattus norvegicus [34] = assay: Analgesic activity in po dosed Sprague-Dawley rat after 15 to 90 mins by tail flick test; type: functional
Mus musculus [35] = assay: Antianxiety activity in albino BALB/cJ mouse assessed as reduction in footshock-induced fighting behavior at 10 mg/kg, po after 30 to 90 mins; type: functional; set-up: scale not given: the % may be the effect or the level left
Rattus norvegicus [36] = assay: Antipsychotic activity in rat assessed as reduction of methamphetamine-induced hyperactivity at 2.5 mg/kg, po administered prior to methamphetamine challenge relative to vehicle-treated control; type: functional; set-up: scale not given: the % may be the effect or the level left
Rattus norvegicus [37] = assay: Antihypertensive activity in spontaneously hypertensive rat model assessed as reduction in blood pressure at 5 mg/kg, po after 24 hrs; type: functional; set-up: scale not given: the % may be the effect or the level left
Felis catus [38] = assay: Hypnotic activity in cat assessed as increase in total sleep time at 2 mg/kg administered orally through diet measured for 12 hrs by EEG analysis; type: functional; settings: route oral
Mus musculus [39] = assay: Antianxiety activity in albino BALB/cJ mouse assessed as reduction in footshock-induced fighting behavior at 1 mg/kg, po after 30 to 90 mins; type: functional; set-up: scale not given: the % may be the effect or the level left
Mus musculus [40] = assay: Anticonvulsant activity in po dosed mouse assessed as dose required to protect 80% of animal measured after 1 to 4 hrs by audiogenic seizure test; type: functional
Felis catus [41] = assay: Hypnotic activity in cat assessed as decrease in non-REM sleep time at 0.5 mg/kg administered orally through diet measured for 12 hrs by EEG analysis; type: functional; settings: route oral
Felis catus [42] = assay: Hypnotic activity in cat assessed as decrease in total sleep time at 0.5 mg/kg administered orally through diet measured for 12 hrs by EEG analysis; type: functional; settings: route oral
Mus musculus [43] = assay: Antidepressant activity in po dosed mouse assessed as potentiation of DOPA-induced effect administered 4 hrs prior to DOPA challenge; type: functional; settings: read-out: MED
Felis catus [44] = assay: Hypnotic activity in cat assessed as increase in non-REM sleep time at 2 mg/kg administered orally through diet measured for 12 hrs by EEG analysis; type: functional; settings: route oral
Mus musculus [45] = assay: Increase in footshock-induced fighting behavior in albino BALB/cJ mouse at 10 mg/kg, po after 30 to 90 mins; type: functional

| SMILES | inhibition (INH) (Rattus norvegicus [2]) | inhibition in vivo at 0.05 mg/kg (Rattus norvegicus [3]) | minimal effective dose (Canis familiaris) | Activity (Rattus norvegicus [4]) | Activity (Rattus norvegicus [5]) | LD50 [6] | inhibition in vivo at 0.5 mg/kg (Rattus norvegicus [8]) | inhibition in vivo at 0.1 mg/kg (Rattus norvegicus [9]) | Activity (Rattus norvegicus [10]) | Activity (Rattus norvegicus [14]) | Activity (Mus musculus [15]) | Activity (Rattus norvegicus [16]) | Activity (Rattus norvegicus [17]) | Activity (Rattus norvegicus [18]) | Activity (Rattus norvegicus [19]) | Activity (Rattus norvegicus [20]) | ED50 (Mus musculus [21]) | Activity (Rattus norvegicus [22]) | Activity (Rattus norvegicus [23]) | inhibition in vivo at 0.5 mg/kg (Rattus norvegicus [25]) | further results |
| --- | --- | --- | --- | --- | --- | --- | --- | --- | --- | --- | --- | --- | --- | --- | --- | --- | --- | --- | --- | --- | --- |
| CCOC(=O)C1(c2ccccc2)CCN(CCC(C#N)(c2ccccc2)c2ccccc2)CC1 [DIPHENOXYLATE] |  |  |  |  |  |  |  |  |  |  |  |  |  |  |  |  |  |  |  |  | inhibition in vivo at 0.2 mg/kg (Rattus norvegicus [1]): 90% |
| CC1CCC2=C(C1)c1c(O)cc(C(C)C(C)CCc3ccc(F)cc3)cc1OC2(C)C (centres undefined) | 0% | 40% | 1 mg/kg | 62% | 56.4% | 750 mg/kg | 0.5% | 60% | 13% | 58% | 0% | 53.1% | 66% | 20.8% | 13.4% | 45.6% | 4.5 mg/kg | 89% | 10% |  | Activity (Rattus norvegicus [7]): 12%; inhibition in vivo at 0.5 mg/kg (Rattus norvegicus [11]): 0%; inhibition in vivo at 0.2 mg/kg (Rattus norvegicus [12]): 90%; Activity (Rattus norvegicus [13]): 27% |
| CN1CC[C@]23c4c5ccc(O)c4O[C@H]2[C@@H](O)C=C[C@H]3[C@H]1C5 |  |  |  |  |  |  |  |  |  |  |  |  |  |  |  |  |  |  |  | 0% | inhibition in vivo at 2 mg/kg (Rattus norvegicus [24]): 50%; inhibition in vivo at 1 mg/kg (Rattus norvegicus [26]): 30% |
| CC1CCC2=C(C1)c1c(OC(=O)CCCN3CCCCC3)cc(C(C)CCCc3ccc(F)cc3)cc1OC2(C)C.Cl (centres undefined) |  |  | 0.2 mg/kg |  |  | ≥ 1000 mg/kg |  | 10% |  |  |  |  | 72% |  |  |  | 1.76 mg/kg | 75% |  |  | Activity (Rattus norvegicus [27]): 38%; Time (Felis catus [28]): 50 min; Time (Felis catus [29]): 73 min; inhibition in vivo at 0.4 mg/kg (Rattus norvegicus [30]): 70%; minimal effective dose (Rhesus monkey): 1 mg/kg; Activity (Rattus norvegicus [31]): 25%; inhibition in vivo at 0.8 mg/kg (Rattus norvegicus [32]): 90%; Activity (Rattus norvegicus [33]): 95%; ED50 (Rattus norvegicus [34]): 1.46 mg/kg; Activity (Mus musculus [35]): 73%; Activity (Rattus norvegicus [36]): 50%; Activity (Rattus norvegicus [37]): 19% |
| CC1CCC2=C(C1)c1c(O)cc(C(C)CCCc3ccc(F)cc3)cc1OC2(C)C (centres undefined) | 0% | 0% | 0.5 mg/kg | 70% | 43.7% | ≥ 1000 mg/kg | 0% | 50% | 31% | 30% | 92% | 39.6% | 90% | 11.4% | 7.8% | 35.5% | 8.3 mg/kg |  | 12% | 70% | Time (Felis catus [38]): 126 min; Activity (Mus musculus [39]): 60%; minimal effective dose (Rhesus monkey): 0.1 mg/kg; Activity (Mus musculus [40]): 30 mg/kg; Time (Felis catus [41]): -4 min; Time (Felis catus [42]): -22 min; minimal effective dose (Mus musculus [43]): 10 mg/kg; ED50 (Rattus norvegicus [34]): 5.9 mg/kg; Time (Felis catus [44]): 94 min; Activity (Mus musculus [45]): 26% |
